The source of these data is patent publication US20150174186A1, “PHARMACEUTICAL COMPOSITION FOR PREVENTING OR TREATING STAT3-MEDIATED DISEASE, COMPRISING SALVIA PLEBEIA R. BR. EXTRACT OR FRACTION THEREOF AS ACTIVE INGREDIENT” (Korea Research Institute of Bioscience and Biotechnology, priority 2012, published 2015).

One experiment relates to osteoclasts. In words: Differentiation and formation of osteoclasts from bone marrow macrophages (TRAP assay). Format: cell-based, ICR mouse. The settings on record: BMM cells. The text has this: Osteoclasts are known to directly affect bone resorption, and the differentiation and formation of osteoclasts play a very important role in osteoporosis. In order to examine the effect of the ethanol extract of Salvia plebeia R. Br. on the differentiation and formation of osteoclasts, the differentiation from bone marrow cells isolated from the femur of an ICR mouse into osteoclasts was observed.
Bone marrow cells were separated from the femur of a three- to six-week old ICR mouse, and the separated cells were treated with M-CSF (30 ng/ml) for 3 days, thereby inducing their differentiation into bone marrow macrophage (BMM). Then, the BMM was treated with M-CSF (30 ng/ml) and RANKL (100 ng/ml) for 4 days, thereby inducing them to be differentiated into osteoclasts. […] Then, the differentiation and formation of osteoclasts were confirmed by TRAP assay.

Experiment [1] relates to mouse model with osteoporosis induced by ovariectomy. In words: Mouse model with osteoporosis induced by ovariectomy (DEXA, micro CT). The settings on record: compared to PBS after ovariectomy, oral, five weeks. Type of experiment: in vivo, C57BL/6 mouse.
Excerpt: Test groups were divided into a sham group (only surgery without ovary removal) and a group treated with ovariectomy (OVX). In the OVX group, the ovaries of an eight-week old female C57BL/6 mouse were removed by surgery and the mouse was bred for 6 weeks to induce osteoporosis. […] The sample was used after dissolving in PBS. Furthermore, the sham group was orally administered with PBS for five weeks.
Upon termination of five weeks' oral administration, the Bone Mineral Density (BMD) and Bone Mineral Content (BMC) of the mouse were measured using an osteoporosis analyzing device Dual-Energy X-ray Absorptiometry (DEXA; bone mineral density analyzer), and the results are shown in FIG. 21a-21d.
Upon termination of five weeks' oral administration, the mice of each experimental group were sacrificed, and the bones adjacent to tibia were separated. The bones were then photographed to obtain their 3-dimensional structures and cross-sections via micro CT, and the microstructures and volume of the bones and trabecular thickness were measured.

SMILES strings stand for the structures.

For `NCCCC(O)(P(=O)(O)O)P(=O)(O)O` [alendronate], the differentiation of osteoclasts entry in the experiment with osteoclasts (10 μM) is listed as “differentiation of osteoclasts was observed”. In addition, the formation of osteoclasts entry with osteoclasts (30 and 60 μM) is reported as “osteoclasts were not formed due to toxicity”. In addition, the “Bone Mineral Content (BMC)” value in experiment [1] is “significant increase”.
